Toxic doses and inconclusive results are not listed. How the source made its calls: active means survival T/C of 150% or more; inactive means T/C below 125% in these data.
System: P388 leukemia ip, CD2F1 mice, survival T/C
Assay: NCI In Vivo Anticancer Drug Screen. Data for tumor model P388 Leukemia (intraperitoneal) in CD2F1 (CDF1) mice
Conditions: endpoint: median survival time, higher = longer survival
In short: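 Mice carrying the transplanted tumor received test compound or vehicle. Survival was recorded in each group, and the value is the treated-group measurement divided by that of the vehicle-treated control group.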

[1] = dose: 60.0 mg/kg/injection, schedule: Q01DX005 (ip), vehicle: Klucel (hydroxypropylcellulose) (HPC)
[2] = dose: 120.0 mg/kg/injection, schedule: Q01DX005 (ip), vehicle: Klucel (hydroxypropylcellulose) (HPC)
[3] = dose: 240.0 mg/kg/injection, schedule: Q01DX005 (ip), vehicle: Klucel (hydroxypropylcellulose) (HPC)
[4] = dose: 50.0 mg/kg/injection, schedule: Q01DX005 (ip), vehicle: saline with Tween-80
[5] = dose: 100.0 mg/kg/injection, schedule: Q01DX005 (ip), vehicle: saline with Tween-80
[6] = dose: 200.0 mg/kg/injection, schedule: Q01DX009 (ip), vehicle: saline
[7] = dose: 6.25 mg/kg/injection, schedule: Q01DX009 (ip), vehicle: saline with Tween-80
[8] = dose: 50.0 mg/kg/injection, schedule: Q01DX009 (ip), vehicle: saline with Tween-80
[9] = dose: 200.0 mg/kg/injection, schedule: Q01DX005 (ip), vehicle: saline with Tween-80
[10] = dose: 6.25 mg/kg/injection, schedule: Q01DX009 (ip), vehicle: distilled water + Tween-80
[11] = dose: 100.0 mg/kg/injection, schedule: Q01DX009 (ip), vehicle: saline with Tween-80
[12] = dose: 200.0 mg/kg/injection, schedule: Q01DX009 (ip), vehicle: saline with Tween-80
[13] = dose: 12.5 mg/kg/injection, schedule: Q01DX009 (ip), vehicle: saline
[14] = dose: 25.0 mg/kg/injection, schedule: Q01DX009 (ip), vehicle: saline
[15] = dose: 400.0 mg/kg/injection, schedule: Q01DX009 (ip), vehicle: saline with Tween-80

Measured: T/C

CC[C@@]1(O)CC(OC2CC(N3CCOCC3)C(O)C(C)O2)c2c(O)c3c(c(O)c2[C@H]1O)C(=O)c1cccc(O)c1C3=O (some centres undefined)
active: dose: 0.89 mg/kg/injection, schedule: Q04DX003 (iv), vehicle: saline 163 % of control | dose: 1.33 mg/kg/injection, schedule: Q04DX003 (iv), vehicle: saline 186 % of control | dose: 2.0 mg/kg/injection, schedule: Q04DX003 (iv), vehicle: saline 209 % of control | dose: 3.0 mg/kg/injection, schedule: Q04DX003 (iv), vehicle: saline 242 % of control
inactive: dose: 4.5 mg/kg/injection, schedule: Q04DX003 (iv), vehicle: saline 113 % of control

Oc1nc2nc[nH]n2c1N=Nc1ccccc1
inactive: [1] 115 % of control | [2] 98 % of control | [3] 92 % of control

CCN(CC)c1ccc2nc3ccc(N=Nc4ccc(O)cc4)cc3[n+](-c3ccccc3)c2c1
inactive: [4] 118 % of control | [5] 114 % of control

O=[N+]([O-])/C=C/c1cc2c(cc1Br)OCO2
inactive: dose: 100.0 mg/kg/injection, schedule: Q04DX003 (ip), vehicle: saline with Tween-80 113 % of control | dose: 200.0 mg/kg/injection, schedule: Q04DX003 (ip), vehicle: saline with Tween-80 113 % of control

CC1(CCl)CC(=O)N1C(N)=O (centres undefined)
inactive: dose: 50.0 mg/kg/injection, schedule: Q01DX009 (ip), vehicle: saline 96 % of control | dose: 100.0 mg/kg/injection, schedule: Q01DX009 (ip), vehicle: saline 104 % of control | [6] 105 % of control

C[N+]1=C(/C=C/Nc2ccc3ccc4cccc5ccc2c3c45)C(C)(C)c2ccccc21
inactive: [7] 108 % of control | dose: 12.5 mg/kg/injection, schedule: Q01DX009 (ip), vehicle: saline with Tween-80 100 % of control | dose: 25.0 mg/kg/injection, schedule: Q01DX009 (ip), vehicle: saline with Tween-80 105 % of control | [8] 89 % of control

CC(C)CC(NC(=O)C(CCCCN)N(C(=O)OCc1ccccc1)C(=O)OCc1ccccc1)C(=O)O (centres undefined)
inactive: [4] 99 % of control | [5] 99 % of control | [9] 90 % of control

COC(=O)C(=O)C(C(=O)c1ccc(F)cc1)c1nc2n(c1O)C(=N)N=N2 (centres undefined)
inactive: dose: 60.0 mg/kg/injection, schedule: Q01DX005 (ip), vehicle: saline with Tween-80 102 % of control | dose: 120.0 mg/kg/injection, schedule: Q01DX005 (ip), vehicle: saline with Tween-80 86 % of control

c1ccc(-c2c[s+]c(-c3ccccc3)s2)cc1
inactive: [10] 117 % of control | dose: 12.5 mg/kg/injection, schedule: Q01DX009 (ip), vehicle: distilled water + Tween-80 100 % of control | dose: 25.0 mg/kg/injection, schedule: Q01DX009 (ip), vehicle: distilled water + Tween-80 90 % of control | dose: 50.0 mg/kg/injection, schedule: Q01DX009 (ip), vehicle: distilled water + Tween-80 99 % of control | dose: 100.0 mg/kg/injection, schedule: Q01DX009 (ip), vehicle: distilled water + Tween-80 97 % of control

Nn1c(=S)[nH]nc(/C=C/c2ccc3c(c2)OCO3)c1=O
inactive: [8] 89 % of control | [11] 91 % of control | [12] 98 % of control

CC1=CCCC(C(C)O)O1 (centres undefined)
inactive: dose: 6.25 mg/kg/injection, schedule: Q01DX009 (ip), vehicle: saline 107 % of control | [13] 104 % of control | [14] 105 % of control | [6] 87 % of control

CCN(CC)C(C)(C)C(=O)/C=C/c1ccc(Cl)c(Cl)c1
inactive: dose: 60.0 mg/kg/injection, schedule: Q01DX005 (ip), vehicle: saline 102 % of control | dose: 120.0 mg/kg/injection, schedule: Q01DX005 (ip), vehicle: saline 101 % of control | dose: 240.0 mg/kg/injection, schedule: Q01DX005 (ip), vehicle: saline 100 % of control

Cn1c(-c2ccccc2)c(C(=O)CC(=O)CN2CCOCC2)c2ccccc21
inactive: dose: 100.0 mg/kg/injection, schedule: Q01DX001 (ip), vehicle: saline 98 % of control | dose: 200.0 mg/kg/injection, schedule: Q01DX001 (ip), vehicle: saline 108 % of control | dose: 400.0 mg/kg/injection, schedule: Q01DX001 (ip), vehicle: saline 97 % of control

COc1ccc2c(c1OC(=O)NCCCl)-c1cccc3c1C(C2)N(CCOC(=O)NCCCl)CC3 (centres undefined)
inactive: dose: 6.25 mg/kg/injection, schedule: Q04DX003 (ip), vehicle: saline + alcohol 109 % of control | dose: 12.5 mg/kg/injection, schedule: Q04DX003 (ip), vehicle: saline + alcohol 102 % of control | dose: 25.0 mg/kg/injection, schedule: Q04DX003 (ip), vehicle: saline + alcohol 96 % of control | dose: 50.0 mg/kg/injection, schedule: Q04DX003 (ip), vehicle: saline + alcohol 106 % of control | dose: 100.0 mg/kg/injection, schedule: Q04DX003 (ip), vehicle: saline + alcohol 98 % of control | dose: 200.0 mg/kg/injection, schedule: Q04DX003 (ip), vehicle: saline + alcohol 105 % of control

CN=C(C#N)c1ccccc1
inactive: [4] 100 % of control | [5] 98 % of control | [9] 99 % of control

CN(C)c1ccc(C(N)=O)cn1
inactive: dose: 1.56 mg/kg/injection, schedule: Q01DX009 (ip), vehicle: saline with Tween-80 109 % of control | [7] 90 % of control | dose: 12.5 mg/kg/injection, schedule: Q04DX003 (ip), vehicle: saline with Tween-80 109 % of control | dose: 25.0 mg/kg/injection, schedule: Q04DX003 (ip), vehicle: saline with Tween-80 118 % of control | dose: 50.0 mg/kg/injection, schedule: Q04DX003 (ip), vehicle: saline with Tween-80 118 % of control

Clc1nc(-c2ccccc2)ns1
inactive: dose: 25.0 mg/kg/injection, schedule: Q01DX009 (ip), vehicle: Klucel (hydroxypropylcellulose) (HPC) 86 % of control | dose: 50.0 mg/kg/injection, schedule: Q01DX009 (ip), vehicle: Klucel (hydroxypropylcellulose) (HPC) 106 % of control | dose: 100.0 mg/kg/injection, schedule: Q01DX009 (ip), vehicle: Klucel (hydroxypropylcellulose) (HPC) 102 % of control | dose: 200.0 mg/kg/injection, schedule: Q01DX009 (ip), vehicle: Klucel (hydroxypropylcellulose) (HPC) 104 % of control

C=C(C)C1CC=C(/C=N/O)CC1 (centres undefined)
inactive: [11] 100 % of control | [15] 91 % of control

O=C1C=C(Nc2ccc(Br)cc2)C(Nc2ccc(Br)cc2)=CC1=O
inactive: dose: 4.68 mg/kg/injection, schedule: Q01DX009 (ip), vehicle: saline with Tween-80 97 % of control | dose: 9.37 mg/kg/injection, schedule: Q01DX009 (ip), vehicle: saline with Tween-80 105 % of control | dose: 18.75 mg/kg/injection, schedule: Q01DX005 (ip), vehicle: saline with Tween-80 100 % of control | dose: 18.75 mg/kg/injection, schedule: Q01DX009 (ip), vehicle: saline with Tween-80 106 % of control | dose: 37.5 mg/kg/injection, schedule: Q01DX005 (ip), vehicle: saline with Tween-80 92 % of control

O=C1NC(=O)C2=C1CCC2Br (centres undefined)
inactive: dose: 3.13 mg/kg/injection, schedule: Q01DX009 (ip), vehicle: distilled water + Tween-80 101 % of control | [10] 102 % of control

COc1cc(-c2ccc(N=Nc3ccc4c(S(=O)(=O)O)cc(S(=O)(=O)O)c(N)c4c3O)c(OC)c2)ccc1N=Nc1ccc2c(S(=O)(=O)O)cc(S(=O)(=O)O)c(N)c2c1O
inactive: [13] 94 % of control | [14] 92 % of control

COc1ccc(S(=O)(=O)N/N=C\c2cc(I)cc(I)c2O)cc1
inactive: [4] 101 % of control | [5] 102 % of control | [9] 100 % of control

C=C1C(=O)OC2C(OC(=O)C(C)C)CCCC12 (centres undefined)
inactive: [1] 105 % of control | [2] 100 % of control | [3] 102 % of control

Cc1c(C)[n+]([O-])c(-c2ccc(Cl)cc2)n1O
inactive: [8] 100 % of control | [11] 100 % of control | [12] 100 % of control

O=C(O)/C(=C\c1ccncc1)c1cccc2ccccc12
inactive: [8] 101 % of control | [11] 101 % of control | [12] 111 % of control | [15] 98 % of control

CCN1c2ccccc2S(=O)(=O)n2c(Cc3ccccc3)nnc21
inactive: dose: 100.0 mg/kg/injection, schedule: Q01DX001 (ip), vehicle: saline with Tween-80 93 % of control | dose: 200.0 mg/kg/injection, schedule: Q01DX001 (ip), vehicle: saline with Tween-80 92 % of control

O=c1[nH]c2ccccc2c2nc(-c3ccccc3)c3ccccc3c12
inactive: [1] 96 % of control | [2] 86 % of control | [3] 91 % of control

— PubChem BioAssay AID330 (DTP/NCI, 2004)
